The values that follow come from BindingDB's records for doi:10.1021/jm970211n (University of Michigan, 1997).

A short description of this experiment: Inhibition of angiotensin I converting enzyme in silico.

The compound `O=C(S[C@@H]1CCC[C@@H]1C(=O)N1CCC[C@H]1C(=O)O)c1ccccc1` showed an IC50 of 63.1 nM.

The compound `O=C(O)[C@@H]1CCCN1C(=O)[C@@H]1CC[C@H]1S` displayed an IC50 of 158 nM. Compared with the last compound, the IC50 is about 2.5-fold higher.

Consider `O=C(O)[C@@H]1C=CCn2c(=O)n(CS)c(=O)n21`, for which the IC50 is 2510 nM.

`C[C@H](NC(CCC(=O)Nc1ccc(I)cc1)C(=O)O)C(=O)N1CCC[C@H]1C(=O)O` (stereo partly specified): the IC50 is 0.794 nM.

`O=C(O)[C@@H]1CC2(CN1C(=O)CP(=O)(O)CCCCc1ccccc1)SCCS2`: the IC50 was 12.6 nM.

For `O=C(O)CCc1cc(O)c2n(c1=O)[C@H](C(=O)O)CC2`, the IC50 is 31.6 nM.

In turn, `O=C(O)Cn1c(=O)n2n(c1=O)C(C(=O)O)C=CC2` (stereo unspecified) gave an IC50 of 3.16 nM.

On to `CC1(CS)C(=O)N2CCCC(C(=O)O)N2C1=O` (stereo unspecified), for which the IC50 is 3160 nM.

Compound `CC(NC(=O)C1CCCCC1S)C(=O)N1CCCC1C(=O)O` (stereo unspecified) had an IC50 of 10 nM.

On to `CC(NP(=O)(O)O)C(=O)C1CCCC1C(=O)O` (stereo unspecified), for which the IC50 was 5.01 nM. Against the preceding compound, the IC50 is about 2-fold lower.

In turn, `CC(NP(=O)(O)CCc1ccccc1)C(=O)N1CCCC1C(=O)O` (stereo unspecified) [1-hydroxy-1-phenylethyl-phosphinoylamino]-propionyl-pyrrolidine-2-carboxylic acid] returned an IC50 of 25.1 nM. This IC50 is about 5-fold higher than that of the compound before.

As usually defined, the IC50 is the concentration needed to halve the response being measured. A lower IC50 goes with inhibition by little substance.
